Legend:
STAT6 protein = target: T1, STAT6 protein (Homo sapiens, UniProt P42226); assay: Fluorescence polarization (FP) binding assay, STAT6; conditions: FP competition, 5 nM fluorescein-labeled tracer, 200 nM protein, PBS pH7.4; read-out: Binding STAT6
T1 sequence (P42226 1-847): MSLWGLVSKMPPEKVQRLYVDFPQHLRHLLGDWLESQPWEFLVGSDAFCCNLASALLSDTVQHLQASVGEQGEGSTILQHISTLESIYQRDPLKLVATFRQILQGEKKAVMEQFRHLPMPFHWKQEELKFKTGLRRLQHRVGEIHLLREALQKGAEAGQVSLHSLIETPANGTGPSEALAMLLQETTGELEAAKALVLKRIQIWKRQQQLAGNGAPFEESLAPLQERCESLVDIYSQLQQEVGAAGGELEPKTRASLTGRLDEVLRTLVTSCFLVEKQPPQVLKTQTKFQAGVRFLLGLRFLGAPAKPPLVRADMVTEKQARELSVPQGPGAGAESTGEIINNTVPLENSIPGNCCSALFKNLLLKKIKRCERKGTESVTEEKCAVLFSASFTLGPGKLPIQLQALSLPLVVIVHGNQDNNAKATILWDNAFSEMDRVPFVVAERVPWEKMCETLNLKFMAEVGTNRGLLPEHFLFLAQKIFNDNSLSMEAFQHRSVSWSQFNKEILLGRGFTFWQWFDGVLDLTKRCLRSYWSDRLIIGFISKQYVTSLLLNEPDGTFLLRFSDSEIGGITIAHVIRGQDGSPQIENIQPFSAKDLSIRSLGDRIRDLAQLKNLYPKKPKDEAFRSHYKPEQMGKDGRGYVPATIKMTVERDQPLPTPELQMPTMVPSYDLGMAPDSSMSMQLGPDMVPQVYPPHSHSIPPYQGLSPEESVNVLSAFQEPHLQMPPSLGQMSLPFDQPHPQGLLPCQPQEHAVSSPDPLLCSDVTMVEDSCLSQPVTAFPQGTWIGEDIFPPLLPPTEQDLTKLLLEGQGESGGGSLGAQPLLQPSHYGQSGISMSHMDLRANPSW
Outline: (§1)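 Tracer (fluorescein-labeled, 5 nM) was mixed with 200 nM STAT5 and/or STAT6 in PBS pH 7.4 plus 0.01% BGG, 0.01% Tween-20, 2 mM DTT. After 15 min shaking and 1 h at room temperature to equilibrium, polarization was measured and constants derived by nonlinear fitting.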

STAT5A = target: T2, STAT5A (Homo sapiens, UniProt P42229); assay: Fluorescence polarization (FP) binding assay, STAT5A; conditions: FP competition, 5 nM fluorescein-labeled tracer, 200 nM protein, PBS pH7.4
T2 sequence (P42229 1-794): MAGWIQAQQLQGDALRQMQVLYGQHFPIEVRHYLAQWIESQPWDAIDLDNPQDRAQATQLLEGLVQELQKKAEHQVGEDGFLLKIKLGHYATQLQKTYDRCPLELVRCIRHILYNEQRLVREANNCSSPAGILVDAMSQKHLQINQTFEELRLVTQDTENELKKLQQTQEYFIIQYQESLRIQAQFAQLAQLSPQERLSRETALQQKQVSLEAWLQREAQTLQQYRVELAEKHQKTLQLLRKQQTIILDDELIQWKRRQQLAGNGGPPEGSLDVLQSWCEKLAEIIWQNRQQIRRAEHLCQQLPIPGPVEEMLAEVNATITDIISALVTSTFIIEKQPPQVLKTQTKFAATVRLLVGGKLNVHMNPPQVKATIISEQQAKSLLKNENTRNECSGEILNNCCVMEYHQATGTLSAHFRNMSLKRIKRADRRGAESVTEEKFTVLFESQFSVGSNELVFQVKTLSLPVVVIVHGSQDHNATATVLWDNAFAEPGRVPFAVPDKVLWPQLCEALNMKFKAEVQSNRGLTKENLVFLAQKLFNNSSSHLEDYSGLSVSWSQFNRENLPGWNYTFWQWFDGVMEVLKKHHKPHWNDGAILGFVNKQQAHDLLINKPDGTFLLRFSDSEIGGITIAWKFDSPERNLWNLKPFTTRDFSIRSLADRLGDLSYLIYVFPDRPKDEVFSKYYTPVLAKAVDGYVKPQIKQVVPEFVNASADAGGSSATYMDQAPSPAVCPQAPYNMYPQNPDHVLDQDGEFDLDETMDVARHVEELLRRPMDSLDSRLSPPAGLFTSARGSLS
Outline: as §1

Row | SMILES | Ki (STAT6 protein) [nM] | Ki (STAT5A) [µM]
1 | O=C(N[C@H](C(=O)N1CCC[C@H]1C(=O)N1CCO[C@@H](c2ccccc2)C1)C1CC1)c1cc2cc(C(F)(F)P(=O)(O)O)ccc2s1 [Compound 154, ((2-(((S)-1-cyclopropyl-2-oxo-2-((S)-2-((S)-2-phenylmorpholine-4-carbonyl)pyrrolidin-1-yl)ethyl)carbamoyl)benzo[b]thiophen-5-yl)difluoromethyl)phosphonic acid] | 1000 to 10000 | > 10
2 | O=C(NC1(C(=O)N2CCC[C@H]2C(=O)N2CCO[C@@H](c3ccccc3)C2)CCC1)c1cc2cc(C(F)(F)P(=O)(O)O)ccc2s1 [Compound 155, (difluoro(2-((1-((S)-2-((S)-2-phenylmorpholine-4-carbonyl)pyrrolidine-1-carbonyl)cyclobutyl)carbamoyl)benzo [b]thiophen-5-yl)methyl)phosphonic acid] | > 10000 | > 10
3 | CC(C)(O)[C@H](NC(=O)c1cc2cc(C(F)(F)P(=O)(O)O)ccc2s1)C(=O)N1CCC[C@H]1C(=O)N1CCO[C@@H](c2ccccc2)C1 [Compound 156, (difluoro(2-(((S)-3-hydroxy-3-methyl-1-oxo-1-((S)-2-((S)-2-phenylmorpholine-4-carbonyl)pyrrolidin-1-yl)butan-2-yl)carbamoyl)benzo[b]thiophen-5-yl)methyl)phosphonic acid] | 1000 to 10000 | > 10
4 | CC(=O)N1CC[C@H]2CC[C@@H](C(=O)N3CCC[C@@H](c4ccccc4)C3)N2C(=O)[C@@H](NC(=O)c2cc3cc(C(F)(F)P(=O)(O)O)ccc3s2)C1 [Compound 157, ((2-(((5S,8S,10aR)-3-acetyl-6-oxo-8-((S)-3-phenylpiperidine-1-carbonyl)decahydropyrrolo[1,2-a][1,5]diazocin-5-yl)carbamoyl)benzo[b]thiophen-5-yl)difluoromethyl)phosphonic acid] | 1000 to 10000 | > 10
5 | CC(=O)N1CC[C@H]2CC[C@@H](C(=O)N3CCC[C@H](c4ccccc4)C3)N2C(=O)[C@@H](NC(=O)c2cc3cc(C(F)(F)P(=O)(O)O)ccc3s2)C1 [Compound 158, ((2-(((5S,8S,10aR)-3-acetyl-6-oxo-8-((R)-3-phenylpiperidine-1-carbonyl)decahydropyrrolo[1,2-a][1,5]diazocin-5-yl)carbamoyl)benzo[b]thiophen-5-yl)difluoromethyl)phosphonic acid] | 100 to 1000 | > 10
6 | CC(=O)N1CC[C@H]2CC[C@@H](C(=O)N3CCOC(C)(c4ccc(F)cc4)C3)N2C(=O)[C@@H](NC(=O)c2cc3cc(C(F)(F)P(=O)(O)O)ccc3s2)C1 (stereo partly drawn) [Compound 159, ((2-(((5S,8S,10aR)-3-acetyl-8-(2-(4-fluorophenyl)-2-methylmorpholine-4-carbonyl)-6-oxodecahydropyrrolo[1,2-a][1,5]diazocin-5-yl)carbamoyl)benzo[b]thiophen-5-yl)difluoromethyl)phosphonic acid] | 1000 to 10000 | > 10
7 | CC(=O)N1CC[C@H]2CC[C@@H](C(=O)N3CCOC(C)(c4ccc(Cl)cc4)C3)N2C(=O)[C@@H](NC(=O)c2cc3cc(C(F)(F)P(=O)(O)O)ccc3s2)C1 (stereo partly drawn) [Compound 160, ((2-(((5S,8S,10aR)-3-acetyl-8-(2-(4-chlorophenyl)-2-methylmorpholine-4-carbonyl)-6-oxodecahydropyrrolo[1,2-a][1,5]diazocin-5-yl)carbamoyl)benzo[b]thiophen-5-yl)difluoromethyl)phosphonic acid] | 1000 to 10000 | > 10
8 | CC(=O)N1CC[C@H]2CC[C@@H](C(=O)N3CCOC(c4ccc(F)cc4)C3)N2C(=O)[C@@H](NC(=O)c2cc3cc(C(F)(F)P(=O)(O)O)ccc3s2)C1 (stereo partly drawn) [Compound 161, ((2-(((5S,8S,10aR)-3-acetyl-8-(2-(4-fluorophenyl)morpholine-4-carbonyl)-6-oxodecahydropyrrolo[1,2-a][1,5]diazocin-5-yl)carbamoyl)benzo[b]thiophen-5-yl)difluoromethyl)phosphonic acid] | 100 to 1000 | > 10

Source: patent US20230295200A1 (REGENTS OF THE UNIVERSITY OF MICHIGAN, priority 2022, published 2023)
